From publication PMC7070953, “Design of Light-Sensitive Triggers for Endothelial NO-Synthase Activation” (Antioxidants, 2020)
“Also recorded” adds a separate entry of the source. Like-named read-outs stand apart in the source and are kept apart here. Values belong to the compound of their own block, whether it stands above or below them.

Tests used:
[1] = test system: HUVEC cells; parameters: key to NO Formed upon Laser Excitation: +: NO formed under laser excitation; −: a lack of NO formed under laser excitation; details: cited from earlier work; for NO produced in HUVEC cells upon light activation (in words): ref 15 (NT1), ref 19 (NT2_5), 19 (NT2_7)
[2] = molecular target: T1, nNOS (Rattus norvegicus, UniProt P29476); parameters: made in house; method as in PMID 30986510; details: a: protein 5–10 µM, [NTs] = 0–50 µM; read-out: Apparent Kd nNOS; cited from earlier work
[3] = Self-association of free NTs in buffer (fluorescence vs concentration, fluorescence anisotropy); format: physicochemical
Procedure: (§1) The apparent binding affinities of the NTs to the neuronal (nNOS) and endothelial (eNOS) isoforms of nitric oxide synthase (NOS) were assessed by changes in NT intrinsic fluorescence using two types of titrations. In the first method, aliquots (1 μL) were added to 100 μL buffer containing NOS protein (5 μM), and fluorescence emission spectra were recorded from 430–700 nm (λexcitation = 420 nm; slit widths = 5 nm) on a Shimadzu RF-5301PC fluorimeter. Spectra of intrinsic protein fluorescence and unbound NT were subtracted from protein/NT spectra and the fluorescence at 460 nm was plotted against NT concentration. In the second method, we measured fluorescence spectra at a fixed concentration of the NT (1–2µM) with a Cary Eclipse spectrophotometer set at T = 20 °C, with excitation wavelength at 390 nm and emission wavelengths in the range 410–610 nm; the PM was usually set at 600 V with slits of 10 nm at both excitation and emission. […] The steady-state fluorescence anisotropy was calculated using: r = (IVV − G × IVH)/(IVV + 2G × IVH) where IVV and IVH correspond to vertical and horizontal components, respectively, when the sample is excited with vertically polarized light, G is the G-factor accounting for the difference in the monochromator transmission between // and ⊥ polarized components (G = IHV/IHH). […]

[4] = molecular target: T1, nNOS; parameters: made in house; details: value used in the Cheng-Prusoff equation; no reference given; read-out: Km of NADPH for nNOS; cited from earlier work
[5] = test system: HUVEC cells; details: cited from earlier work
[6] = molecular target: T1, nNOS; assay: Flavin reduction of nNOS upon light irradiation at 365 nm (absorption changes); format: biochemical; parameters: made in house; calmodulin purchased from Sigma; details: for FAD/flavin reduction upon light excitation (in words): irradiation at 365 nm
Procedure: Light irradiation of the NT -nNOS complexes in the presence of NOHA, H4B, and Ca^2+/calmodulin was performed by a continuous irradiation with a Hg/Xe lamp (Hamamatsu, LC6 Lightningcure, 200 W) equipped with narrow-band interference filter to select 365 nm (Semrock FF01-370/36: center wavelength 370 nm, nominal bandwidth […]) during one minute. The absorption changes before and after irradiation were measured on a Cary5000 spectrophotometer from Agilent Technologies (Les Ulys, France).
100 mM NOHA, 100 mM Ca^2+, 1 µg recombinant calmodulin, 20 mM Tris Buffer at pH = 7.8, 100 mM NaCl; representative data out of 2 experiments.

[7] = molecular target: T1, nNOS; assay: Fluorescence titration of NT binding to recombinant nNOS; parameters: made in house; details: [nNOS] = 0–10 µM, 10 mM Tris pH 7.2, 100 mM NaCl, read-out: Apparent Kd nNOS
Procedure: as §1

[8] = test system: NOS; parameters: method as in PMID 19222033, PMID 17263536; details: one and two-photon excitation; cited from earlier work
[9] = parameters: method as in earlier work; details: cited from earlier work

Compound: CN(Cc1cn(C[C@H]2O[C@@H](n3cnc4c(N)ncnc43)[C@H](OCC(=O)O)[C@@H]2O)nn1)c1ccc(/C=C/C=C/c2ccc(N)cc2)cc1 [NT2_7]
NO Formed upon Laser Excitation [1]: − | NO produced in HUVEC cells upon light activation (in words) [1]: unable to generate NO | Kd [2]: 30 ± 4 µM

Steady-state fluorescence anisotropy r ([3]; nNOS-free, NT3_3 at 5 µM, fluorescein as freely rotating monomer): 0.005
Compound: O=C1OC2(c3ccc(O)cc3Oc3cc(O)ccc32)c2ccccc21 [fluorescein, reference compound]

Compound: NC(=O)C1=CN([C@@H]2O[C@H](COP(=O)(O)OP(=O)(O)OC[C@H]3O[C@@H](n4cnc5c(N)ncnc54)[C@H](OP(=O)(O)O)[C@@H]3O)[C@@H](O)[C@H]2O)C=CC1 [NADPH]
Km [4]: 5.5 µM

FAD/flavin reduction upon light excitation (in words) [6]: reduced FAD upon light excitation | Kd ([7]; b: [NTs] = 1 or 2 µM): 1.3 ± 0.2 µM | Kd ([7]; c: [NTs] = 2 µM, 100 mM NOHA): 4 ± 0.7 µM | Concentration above which fluorescence of free NT deviates from linearity (self-association) ([3]; free NT in buffer, fluorescence at 460 nm, order NT3_3 > NT3_5 > NT2_5 > NT3_7): above 5 µM
Compound: CN(Cc1cn(C[C@H]2O[C@@H](n3cnc4c(N)ncnc43)[C@H](O)[C@@H]2OCC(=O)O)nn1)c1ccc(/C=C/C=C/c2ccc(N)cc2)cc1 [NT2_5]
NO Formed upon Laser Excitation [1]: + | NO produced in HUVEC cells upon light activation (in words) [1]: produced NO upon light activation | Cytotoxicity in HUVEC cells above concentration ([5]; second generation of NT): above 5 µM | Ground state (dark) FAD reduction, no light (in words) ([6]; no light): some ground state reduction; also recorded: can reduce FAD in the ground state

FAD/flavin reduction upon light excitation (in words) [6]: could not reduce FAD
Compound: CN(Cc1cn(C[C@H]2O[C@@H](n3cnc4c(N)ncnc43)[C@H](OCC(=O)O)[C@@H]2OCC(=O)O)nn1)c1ccc(/C=C/C=C/c2ccc(N)cc2)cc1 [NT2_3]
NO Formed upon Laser Excitation [1]: −

FAD/flavin reduction upon light excitation (in words) [6]: reduced FAD upon light excitation
Compound: CCN(CCNC(=O)[C@H]1O[C@@H](n2cnc3c(N)ncnc32)[C@H](OP(=O)(O)O)[C@@H]1O)c1ccc(/C=C/C=C/c2ccc(N)cc2)cc1 [NT1]
NO Formed upon Laser Excitation [1]: + | NO produced in HUVEC cells upon light activation (in words) [1]: produced NO upon light activation | Time of initiation and synchronization of NOS catalysis after photoexcitation [8]: 15–20 ps | Not toxic to HUVEC up to concentration [5]: up to 20 µM | Self-association (in words) [9]: did not self-associate
